Measurements from US11267825B2 (AICURIS GMBH & CO. KG, priority 2017, dated 2022).

Tests used:
HepAD38 cells = experiment: Cell viability assay (AlamarBlue) in HepAD38 cells; settings: HepAD38 cells in the presence of 0.3 μg/ml tetracycline, six days incubation
HBV = experiment: Determination of HBV DNA from the supernatants of HepAD38 cells (anti-HBV activity); type: cell-based, hepatitis B virus; settings: HBV DNA in HepAD38 supernatant at day 6; read-out: Cell Activity (EC50)
Outline: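 HepAD38 cells (60,000/well) were treated with half-log compound dilutions in tetracycline-free medium to induce HBV production. On day 6, HBV DNA was purified from filtered supernatant and quantified by real-time PCR against plasmid standards. EC50 values came from non-linear regression of relative copy numbers, typically from three experiments in triplicate.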

HBV core protein = HBV core protein (UniProt P03146); type: biochemical; settings: BODIPY-FL labelled core protein, assembly started with NaCl, read after 6 min; read-out: Assembly Activity (IC50)
HBV core protein, sequence (P03146 whole entry, looked up): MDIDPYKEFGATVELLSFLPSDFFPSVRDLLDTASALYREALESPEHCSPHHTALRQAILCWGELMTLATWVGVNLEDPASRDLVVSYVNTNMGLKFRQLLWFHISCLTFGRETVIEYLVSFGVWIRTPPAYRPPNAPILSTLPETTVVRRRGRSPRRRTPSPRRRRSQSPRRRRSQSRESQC
Outline: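 Fluorescence-quenching assembly assay using E. coli-expressed core protein 1–149 plus Cys150, labelled with BODIPY-FL maleimide, at 1.0–2.0 μM in 50 mM HEPES pH 7.5, 0.5% DMSO. Assembly started with NaCl to […]; fluorescence (ex 477/em 525 nm) read after 6 min. EC50 by non-linear regression, 8-point 0.5-log dilutions.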

SMILES | CC50 (HepAD38 cells) [µM] | EC50 (HBV) [µM] | IC50 (HBV core protein) [µM]
O=C(c1cc2c(Cl)c(F)ccc2[nH]1)N1CCc2nc(N[C@H]3C[C@H](O)C3)sc2C1 [Example 355, (1r,3r)-3-{[5-(4-chloro-5-fluoro-1H-indole-2-carbonyl)-4H,5H,6H,7H-[1,3]thiazolo[5,4-c]pyridin-2-yl]amino}cyclobutan-1-ol] | > 10 | < 1 | < 5
O=C(c1cc2c(Cl)cc(F)cc2[nH]1)N1CCc2nc(N[C@H]3C[C@H](O)C3)sc2C1 [Example 356, (1r,3r)-3-{[5-(4-chloro-6-fluoro-1H-indole-2-carbonyl)-4H,5H,6H,7H-[1,3]thiazolo[5,4-c]pyridin-2-yl]amino}cyclobutan-1-ol] | > 10 | < 1 | < 5
O=C(Nc1nc2c(s1)CN(C(=O)c1cc3ccccc3[nH]1)CC2)C1[C@H]2COC[C@@H]12 (stereo partly drawn) [Example 358, (1R,5S,6R)—N-[5-(1H-indole-2-carbonyl)-4H,5H,6H,7H-[1,3]thiazolo[5,4-c]pyridin-2-yl]-3-oxabicyclo[3.1.0]hexane-6-carboxamide] | > 10 | < 1 | < 5
